This note sets out measurements from patent US12150937B2, “NLRP3 modulators” (INNATE TUMOR IMMUNITY, INC., priority 2019, dated 2024).

This test addresses T1, NLRP3 (Homo sapiens, UniProt Q96P20).
T1 construct: Measurement of IL-1β Production in PMA-Differentiated THP-1 Cells; host or cells: THP-1 cells, PMA-differentiated
The experiment in a line: Measurement of IL-1β production in PMA-differentiated THP-1 cells (NLRP3 hIL1β). It is filed as cell-based. As for the experimental part:
Measurement of IL-1β Production in PMA-Differentiated THP-1 Cells
THP-1 cells were purchased from the American Type Culture Collection and sub-cultured according to instructions from the supplier. Prior to experiments, cells were cultured in RPMI 1640 containing 10% heat inactivated FBS, penicillin (100 units/ml) and streptomycin (100 μg/ml), and maintained in log phase prior to experimental setup. Prior to the experiment THP-1 were treated with PMA (Phorbol 12-myristate 13-acetate) (10 μg/ml) for 24 hours. The day of the experiment the media was removed and attaching cells were treated with trypsin for 2 minutes, cells were then collected, washed with PBS (phosphate buffer saline), spin down, resuspended in 2% heat inactivated FBS with RPMI at a concentration of 1×10^6 cells/ml, and 100 μl was plated in a 96 well plate. Compounds were dissolved in dimethyl sulfoxide (DMSO) and added to the culture medium to achieve desired concentration (e.g. 100, 30, 10, 3, 1, 0.3 or 0.1 μM). Cells were incubated with compounds for 4 hours. Cell free supernatant was collected and the production of IL-1β was evaluated by ELISA. A vehicle only control was run concurrently with each experiment. Final DMSO concentration was 1%.
Measurement of IL-1β Production in PMA-Differentiated THP-1 Cells (Alternative Procedure)
THP-1 cells were purchased from the American Type Culture Collection and sub-cultured according to instructions from the supplier. Prior to experiments, cells were cultured in RPMI 1640 containing 10% heat inactivated FBS, penicillin (100 units/ml), streptomycin (100 μg/ml), HEPES (10 mM) and sodium pyruvate (1 mM) and maintained in log phase prior to experimental setup. Prior to the experiment, THP-1 cells were treated with PMA (Phorbol 12-myristate 13-acetate) (20 μg/ml) overnight. The day of the experiment, the media was removed and attached cells were treated with trypsin for 2 minutes, cells were then collected, washed with PBS (phosphate buffer saline), pelleted by centrifugation and resuspended in 2% heat inactivated FBS with RPMI at a concentration of 50,000 cells/well in a 384 well plate. Cell free supernatant was collected and the production of IL-1β was evaluated by ELISA. Compounds were dissolved in dimethyl sulfoxide (DMSO) and added to the culture medium to achieve desired concentration (e.g. 100, 30, 10, 3, 1, 0.3 or 0.1 μM). Cells were incubated with compounds for 2 hours. A vehicle only control was run concurrently with each experiment. Final DMSO concentration was 1%.
Measurement of IL-1β Production—hTRF Protocol (Second Alternative Procedure)
Serial dilutions of compounds in DMSO were added to low volume 384 well plates at 100 nl/well using an ECHO 550 acoustic dispenser (Labcyte) to achieve final starting concentration of 10 μM in assay.
THP-1 cells in RPMI (Gibco, 11875) media with 10% FBS at a density of 1×10^6 cell/ml in a T175 flask were treated with a final concentration of phorbol 12-myristate 13-acetate (PMA) (Sigma, P1585) of 50 ng/ml overnight at 37° C. at 5% CO2 for differentiation. Cells were harvested the next day after rinsing well wth dPBS using 0.5% trypsin. A cell solution was prepared of 1×10^6 cells/ml for 50,000 cells in 50 μl/well in RPMI media with 2% FBS. Cells were plated using a multichannel pipette onto the compound dilutions in Greiner, 384 well, black clear bottom tissue culture treated plates (781090). The plates were incubated in 37° C. incubator at 5% CO2 for 2 hours.
After the 2 hour incubation, the cell plates were spun in the centrifuge for 5 minutes at 1200 rpm. Using the Felix (CyBio), 8 μl of the supernatant was transferred to 384 well, low volume, white proxy plates. (Perkin Elmer, 6008230). A human IL1beta hTRF kit was used to analyze the supernatant (CISBIO, 62HIL1BPEG). The kit instructions were followed for preparing the IL1Beta standard curve and then the antibodies from the kit were diluted 1:40 rather than 1:20 as kit instructed. […]

T1 sequence (Q96P20 whole entry): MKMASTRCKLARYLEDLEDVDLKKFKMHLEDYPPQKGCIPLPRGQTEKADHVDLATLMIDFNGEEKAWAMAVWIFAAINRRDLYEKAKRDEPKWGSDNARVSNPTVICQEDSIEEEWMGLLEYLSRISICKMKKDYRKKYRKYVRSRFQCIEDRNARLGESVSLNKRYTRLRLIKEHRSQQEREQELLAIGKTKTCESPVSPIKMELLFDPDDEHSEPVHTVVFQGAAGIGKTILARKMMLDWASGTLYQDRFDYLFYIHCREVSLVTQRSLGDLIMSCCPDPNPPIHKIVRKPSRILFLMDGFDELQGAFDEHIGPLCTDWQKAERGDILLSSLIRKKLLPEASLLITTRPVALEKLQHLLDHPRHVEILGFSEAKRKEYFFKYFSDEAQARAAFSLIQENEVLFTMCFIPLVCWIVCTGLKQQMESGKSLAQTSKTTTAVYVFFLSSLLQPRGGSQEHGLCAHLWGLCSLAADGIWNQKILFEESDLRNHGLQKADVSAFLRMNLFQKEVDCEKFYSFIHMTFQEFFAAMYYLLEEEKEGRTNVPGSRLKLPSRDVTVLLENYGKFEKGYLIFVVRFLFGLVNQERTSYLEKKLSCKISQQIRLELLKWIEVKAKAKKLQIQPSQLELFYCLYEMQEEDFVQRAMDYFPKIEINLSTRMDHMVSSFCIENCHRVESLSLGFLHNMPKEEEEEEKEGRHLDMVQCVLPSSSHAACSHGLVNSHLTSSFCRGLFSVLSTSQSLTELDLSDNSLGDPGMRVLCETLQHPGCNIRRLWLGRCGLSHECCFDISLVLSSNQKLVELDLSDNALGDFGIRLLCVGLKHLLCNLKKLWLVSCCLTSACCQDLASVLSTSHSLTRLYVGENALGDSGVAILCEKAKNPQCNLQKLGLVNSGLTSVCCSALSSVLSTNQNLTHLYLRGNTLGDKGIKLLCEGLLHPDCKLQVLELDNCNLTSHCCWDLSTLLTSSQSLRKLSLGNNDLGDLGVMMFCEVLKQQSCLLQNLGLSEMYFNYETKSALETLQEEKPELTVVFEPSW

`Nc1cc(NCCCO)c2ccc(-c3cc[nH]n3)nc2n1` [Example 1, 3-((2-amino-7-(1H-pyrazol-3-yl)-1,8-naphthyridin-4-yl)amino)propan-1-ol]: it took 1000 nM to reach a half-maximal effect (EC50).

With `Nc1cc(N[C@H]2CC[C@H](O)C2)c2cnc(-c3ccn[nH]3)cc2n1` [Example 2, (1S,3S)-3-((2-amino-7-(1H-pyrazol-5-yl)-1,6-naphthyridin-4-yl)amino)cyclopentan-1-ol], the EC50 (in general, the concentration at which the effect is half-maximal) was 17000 nM.

With `Nc1cc(NCCO)c2ncc(-c3ccn[nH]3)cc2n1` [Example 3, 2-((2-amino-7-(1H-pyrazol-3-yl)-1,5-naphthyridin-4-yl)amino)ethan-1-ol], the 50% effective concentration (EC50) was determined as 310 nM.

For `Nc1cc(N[C@H]2CC[C@H](O)C2)c2ncc(-c3ccn[nH]3)cc2n1` [Example 4, (1S,3S)-3-((2-amino-7-(1H-pyrazol-5-yl)-1,5-naphthyridin-4-yl)amino)cyclopentan-1-ol], the concentration giving a half-maximal response (EC50) was determined as 3500 nM.

In turn, `Nc1cc(-c2cc[nH]n2)c2ncc(-c3ccn[nH]3)cc2n1` [Example 5, 4-(1H-pyrazol-3-yl)-7-(1H-pyrazol-5-yl)-1,5-naphthyridin-2-amine] came in with a concentration giving a half-maximal response (EC50) of 860 nM.

Consider `Nc1nc(N[C@@H]2CCOC2)c2ncc(-c3cc[nH]n3)cc2n1` [Example 6, (R)-7-(1H-pyrazol-3-yl)-N4-(tetrahydrofuran-3-yl)pyrido[3,2-d]pyrimidine-2,4-diamine], for which the EC50 amounted to 3600 nM.

The molecule `Nc1nc(N[C@H]2CC[C@H](O)C2)c2ccc(-c3ccn[nH]3)nc2n1` [Example 7, (1S,3 S)-3-((2-amino-7-(1H-pyrazol-5-yl)pyrido[2,3-d]pyrimidin-4-yl)amino)cyclopentan-1-ol] displayed a concentration for a half-maximal effect (EC50) of 5700 nM.

The molecule `Nc1cc(N[C@H]2CC[C@H](O)C2)c2ccc(-c3cc[nH]n3)nc2n1` [Example 8] registered an EC50 of 1600 nM.

For the molecule `Nc1cc(NCc2cccnn2)c2ccc(-c3cc[nH]n3)nc2n1` [Example 9], a half-maximal response (EC50) required 2000 nM.

Consider `Nc1cc(N[C@H]2CCOC2)c2ccc(-c3cc[nH]n3)nc2n1` [Example 10], for which the concentration for a half-maximal effect (EC50) worked out at 930 nM.

In turn, `Nc1cc(NCCCO)c2cnc(-c3cc[nH]n3)cc2n1` [Example 11] returned an EC50 of 1700 nM.

The molecule `Nc1cc(N[C@H]2CCOC2)c2cnc(-c3cc[nH]n3)cc2n1` [Example 12] came in with an EC50 of 1700 nM.

Molecule `Nc1cc(N[C@@H]2CCOC2)c2ncc(-c3ccn[nH]3)cc2n1` [Example 14] registered an EC50 of 2600 nM.

Molecule `Nc1cc(NCc2cc[nH]n2)c2ncc(-c3ccn[nH]3)cc2n1` [Example 15] gave an EC50 of 280 nM.

`Nc1cc(NCCCO)c2ncc(-c3ccn[nH]3)cc2n1` [Example 16] displayed an EC50 of 350 nM.

On to `Nc1nc(NCCCO)c2ncc(-c3cc[nH]n3)cc2n1` [Example 17], for which the EC50 came to 830 nM.

The molecule `Nc1nc(NCc2cncnc2)c2ncc(-c3cc[nH]n3)cc2n1` [Example 18] gave a 50% effective concentration (EC50) of 2000 nM.

Take `Nc1nc(NCCc2ccccn2)c2ncc(-c3cc[nH]n3)cc2n1` [Example 19]: the EC50 came to 690 nM.

`Nc1nc(NCCO)c2ncc(-c3cc[nH]n3)cc2n1` [Example 20] yielded an EC50 of 1900 nM.

For `Nc1nc(N2CCCOCC2)c2ncc(-c3cc[nH]n3)cc2n1` [Example 21], the EC50 came out at 700 nM.

The molecule `C[C@H](O)CNc1cc(N)nc2cc(-c3ccn[nH]3)cnc12` [Example 24] returned an EC50 of 310 nM.

`C[C@@H](O)CNc1cc(N)nc2cc(-c3ccn[nH]3)cnc12` [Example 25] showed a 50% effective concentration (EC50) of 80 nM.

`Nc1cc(N[C@@H]2CC[C@@H](O)C2)c2ncc(-c3ccn[nH]3)cc2n1` [Example 26] came in with a half-maximal effective concentration (EC50) of 590 nM.

In turn, `Nc1cc(N[C@H]2C[C@H](O)C2)c2ncc(-c3ccn[nH]3)cc2n1` [Example 28] showed an EC50 of 140 nM.

Molecule `Nc1cc(NCc2cccnn2)c2ncc(-c3ccn[nH]3)cc2n1` [Example 29] displayed an EC50 of 280 nM.
